A value given as a limit tells only on which side of the number the result lay.

Compound `Cn1cc(C=C2C(=O)NN=C2N)c2ccccc21` [Example 299, 3-Amino-4-[(1-methylindol-3-yl)methylene]-2-pyrazolin-5-one] registered a melting point of 246 to 247 °C. Then `O=C1NN=C(CCc2ccc(Cl)cc2)C1=Cc1c[nH]c2ccccc12` [Example 300, 3-(4-Chlorophenylethyl)-4-[(indol-3-yl)methylene]-2-pyrazolin-5-one], with 271 to 272 °C. As to `CCOC1=NNC(=O)C1=Cc1cn(C)c2ccccc12` [Example 301, 3-Ethoxy-4-[(1-methylindol-3-yl)methylene]-2-pyrazolin-5-one], the melting point fell in the range of 194 to 196 °C. Then `Cn1cc(C=C2C(=O)NN=C2c2ccno2)c2ccccc21` [Example 302, 3-(5-Isoxazolyl)-4-[(1-methylindol-3-yl)methylene]-2-pyrazolin-5-one], with 271 to 272 °C. With `Cn1cc(C=C2C(=O)NN=C2C(C)(C)C)c2ccccc21` [Example 303, 4-[(1-Methylindol-3-yl)methylene]-3-tert-butyl-2-pyrazolin-5-one] the figure was 201 to 203 °C.

Take `Cn1cc(C=C2C(=O)NN=C2c2cnccn2)c2ccc(C(=O)O)cc21` [Example 304, 4-[(6-Carboxy-1-methylindol-3-yl)methylene]-3-pyrazinyl-2-pyrazolin-5-one]: the melting point is more than 300 °C. Then `CC(C)OC1=NNC(=O)C1=Cc1cc2ccccc2[nH]1` [Example 306, 4-[(Indol-2-yl)methylene]-3-isopropoxy-2-pyrazolin-5-one], with 221 to 223 °C. `O=C1NN=C(CCc2ccc(O)cc2)C1=Cc1cc2ccccc2[nH]1` [Example 307, 3-(4-Hydroxyphenylethyl)-4-[(indol-2-yl)methylene]-2-pyrazolin-5-one] registered a melting point of 242 to 245 °C. `Nc1ccc(CCC2=NNC(=O)C2=Cc2cc3ccccc3[nH]2)cc1` [Example 308, 3-(4-Aminophenylethyl)-4-[(indol-2-yl)methylene]-2-pyrazolin-5-one] gave a melting point of 187 to 189 °C.

For `COC(=O)c1ccc(CCC2=NNC(=O)C2=Cc2cc3ccccc3[nH]2)cc1` [Example 309, 3-(4-Methoxycarbonylphenylethyl]-4-[(indol-2-yl)methylene]-2-pyrazolin-5-one], the melting point is 210 to 212 °C.

`NC(=O)c1ccc(CCC2=NNC(=O)C2=Cc2cc3ccccc3[nH]2)cc1` [Example 310, 3-(4-Carbamoylphenylethyl)-4-[(indol-2-yl)methylene]-2-pyrazolin-5-one] returned a melting point of 263 to 265 °C. With `O=C1NN=C(C2CC2)C1=Cc1cc2ccccc2[nH]1` [Example 311, 3-Cyclopropyl-4-[(indol-2-yl)methylene]-2-pyrazolin-5-one] the figure was 238 to 240 °C.

For `CN(C)Cc1c(C=C2C(=O)NN=C2C2CC2)[nH]c2ccccc12` [Example 312, 3-Cyclopropyl-4-[(3-dimethylaminomethylindol-2-yl)methylene]-2-pyrazolin-5-one], the melting point was 202 °C (dec.). Then `COc1ccc2[nH]c(C=C3C(=O)NN=C3OC(C)C)cc2c1` [Example 314, 3-Isopropoxy-4-[(5-methoxyindol-2-yl)methylene]-2-pyrazolin-5-one], with 219 to 220 °C. Regarding `CC(C)OC1=NNC(=O)C1=Cc1cc2ccccc2n1C` [Example 315, 3-Isopropoxy-4-[(1-methylindol-2-yl)methylene]-2-pyrazolin-5-one], the melting point lay in the range of 254 to 255 °C. With `O=C1NN=C(C2CCOC2)C1=Cc1cc2ccccc2[nH]1` (stereo not shown) [Example 316, 4-[(Indol-2-yl)methylene]-3-(tetrahydrofuran-3-yl)-2-pyrazolin-5-one] the figure was 180 to 183 °C; with `COc1ccc2[nH]c(C=C3C(=O)NN=C3C3CC3)cc2c1` [Example 317, 3-Cyclopropyl-4-[(5-methoxyindol-2-yl)methylene]-2-pyrazolin-5-one], 221 to 224 °C.

`O=C1NN=C(C2CC2)C1=Cc1cc2cc([N+](=O)[O-])ccc2[nH]1` [Example 318, 3-Cyclopropyl-4-[(5-nitroindol-2-yl)methylene]-2-pyrazolin-5-one]: the melting point lay in the range of 316 to 320 °C. With `O=C1NN=C(CCc2ccc(C(=O)O)cc2)C1=Cc1cc2ccccc2[nH]1` [Example 320, 3-(4-Carboxyphenylethyl)-4-[(indol-2-yl)methylene]-2-pyrazolin-5-one] the figure was more than 300 °C. `O=C1NN=C(c2ccccc2)C1=Cc1cc2ccccc2[nH]1` [Example 321, 4-[(Indol-2-yl)methylene]-3-phenyl-2-pyrazolin-5-one] returned a melting point of 210 to 211 °C. With `Cc1c(C=C2C(=O)NN=C2OC(C)C)[nH]c2ccccc12` [Example 322, 3-Isopropoxy-4-[(3-methylindol-2-yl)methylene]-2-pyrazolin-5-one] the figure was 241 to 243 °C; with `COC(=O)C(Cc1c(C=C2C(=O)NN=C2OC(C)C)[nH]c2ccccc12)NC(C)=O` (stereo not shown) [Example 323, 3-Isopropoxy-4-{[3-(2-methoxycarbonyl-2-acetamidoethyl)indol-2-yl]methylene}-2-pyrazolin-5-one], 205 to 206 °C.

For `CCOC1=NNC(=O)C1=Cc1cc2ccccc2[nH]1` [Example 324, 3-Ethoxy-4-[(indol-2-yl)methylene]-2-pyrazolin-5-one], the melting point lay in the range of 265 to 267 °C.

In turn, `COc1ccc2[nH]c(C=C3C(=O)NN=C3c3cnccn3)cc2c1` [Example 327, 4-[(5-Methoxyindol-2-yl)methylene]-3-pyrazinyl-2-pyrazolin-5-one] gave a melting point of 272 to 274 °C. Then `COc1ccc2[nH]c(C=C3C(=O)NN=C3c3ccccn3)cc2c1` [Example 328, 4-[(5-Methoxyindol-2-yl)methylene]-3-(2-pyridyl)-2-pyrazolin-5-one], with 170 to 172 °C; and `CCOC1=NNC(=O)C1=Cc1cc2c([nH]1)CCC=C2Cl` [Example 329, 4-[(4-Chloro-6,7-dihydroindol-2-yl)methylene]-3-ethoxy-2-pyrazolin-5-one], with 177 to 203 °C.

In turn, `O=C1NN=C(c2cnccn2)C1=Cc1cc2c([nH]1)CCC=C2Cl` [Example 330, 4-[(4-Chloro-6,7-dihydroindol-2-yl)methylene]-3-pyrazinyl-2-pyrazolin-5-one] displayed a melting point of 206 to 209 °C.

On to `CCOC1=NNC(=O)C1=Cc1[nH]c2ccccc2c1CN(C)C` [Example 332, 4-[(3-Dimethylaminomethylindol-2-yl)methylene]-3-ethoxy-2-pyrazolin-5-one], for which the melting point lay in the range of 185 to 187 °C.

For the compound `O=C1NN=C(Cc2ccccc2)C1=Cc1c[nH]c2ncccc12` [Example 333, 4-[(7-Azaindol-3-yl)methylene]-3-benzyl-2-pyrazolin-5-one], the melting point was in the range of 274 to 277 °C. With `O=C1NN=C(Cc2ccccc2)C1=Cc1cn(CCCCO)c2ncccc12` [Example 334, 3-Benzyl-4-{[1-(4-hydroxybutyl)-7-azaindol-3-yl]methylene}-2-pyrazolin-5-one] the figure was 176 to 179 °C; with `COc1ccc(OCC2=NNC(=O)C2=Cc2c[nH]c3ncccc23)cc1` [Example 335, 4-[(7-Azaindol-3-yl)methylene]-3-(4-methoxyphenyloxymethyl)-2-pyrazolin-5-one], 300 to 302 °C; with `CC(C)OC1=NNC(=O)C1=Cc1c[nH]c2ncccc12` [Example 336, 4-[(7-Azaindol-3-yl)methylene]-3-isopropoxy-2-pyrazolin-5-one], 258 to 260 °C.

Consider `NC1=NNC(=O)C1=Cc1c[nH]c2ncccc12` [Example 337, 3-Amino-4-[(7-azaindol-3-yl)methylene]-2-pyrazolin-5-one], for which the melting point was more than 300 °C. Then `COc1ccc(CC2=NNC(=O)C2=Cc2c[nH]c3ncccc23)cc1` [Example 338, 4-[(7-Azaindol-3-yl)methylene]-3-(4-methoxybenzyl)-2-pyrazolin-5-one], with 273 to 276 °C; and `O=C1NN=C(Nc2ccccc2)C1=Cc1c[nH]c2ncccc12` [Example 339, 4-[(7-Azaindol-3-yl)methylene]-3-phenylamino-2-pyrazolin-5-one], with 249 to 252 °C; and `Cc1ccc(CC2=NNC(=O)C2=Cc2c[nH]c3ncccc23)cc1` [Example 340, 4-[(7-Azaindol-3-yl)methylene]-3-(4-methylbenzyl)-2-pyrazolin-5-one], with more than 300 °C.

Take `O=C1NN=C(CCc2ccc(O)cc2)C1=Cc1c[nH]c2ncccc12` [Example 341, 4-[(7-Azaindol-3-yl)methylene]-3-(4-hydroxyphenylethyl)-2-pyrazolin-5-one]: the melting point lay in the range of 270 to 272 °C. With `O=C1NN=C(CCc2ccc(O)cc2)C1=Cc1cn(CCCCO)c2ncccc12` [Example 342, 4-{[1-(4-Hydroxybutyl)-7-azaindol-3-yl]methylene}-3-(4-hydroxyphenylethyl)-2-pyrazolin-5-one], the melting point was 211 to 212 °C. With `CC(C)C1=NNC(=O)C1=Cc1c[nH]c2ncccc12` [Example 343, 4-[(7-Azaindol-3-yl)methylene]-3-isopropyl-2-pyrazolin-5-one] the figure was 300 °C (dec.). Consider `O=C1NN=C(C2CC2)C1=Cc1c[nH]c2ncccc12` [Example 344, 4-[(7-Azaindol-3-yl)methylene]-3-cyclopropyl-2-pyrazolin-5-one], for which the melting point was in the range of 245 to 246 °C. Then `O=C1NN=C(C2CCC2)C1=Cc1c[nH]c2ncccc12` [Example 345, 4-[(7-Azaindol-3-yl)methylene]-3-cyclobutyl-2-pyrazolin-5-one], with 300 to 302 °C; and `O=C1NN=C(c2ccccc2)C1=Cc1c[nH]c2ncccc12` [Example 347, 4-[(7-Azaindol-3-yl)methylene]-3-phenyl-2-pyrazolin-5-one], with 280 to 282 °C.

`O=C1NN=C(CCc2ccccc2)C1=Cc1c[nH]c2ncccc12` [Example 357, 4-[(7-Azaindol-3-yl)methylene]-3-phenylethyl-2-pyrazolin-5-one] yielded a melting point of 317 to 319 °C.

The melting point is the temperature, or range, at which the solid turns liquid.

Values taken from patent US7060822B1, “2-pyrazolin-5-ones” (Abbott GmbH & Co. KG, priority 1999, dated 2006).
